In the NIST ThermoML archive (doi:10.1016/j.fluid.2014.06.026):
Numbers after ± are expanded uncertainties.

Conditions: 101.33 kPa, Liquid; for viscosity: Cone and plate viscometry; for mass density: Vibrating tube method

## c1cn(CCOCCOCCOCCn2ccnc2)cn1
298.2 K
  viscosity: 535.6 ± 27 mPa·s
  mass density: 1172.67 ± 1.2 kg/m3
303.2 K
  viscosity: 356 ± 16 mPa·s
  mass density: 1168.77 ± 1.2 kg/m3
308.2 K
  viscosity: 240.2 ± 9.5 mPa·s
  mass density: 1164.87 ± 1.2 kg/m3
313.2 K
  viscosity: 178.2 ± 6.2 mPa·s
  mass density: 1161.05 ± 1.2 kg/m3
318.2 K
  viscosity: 129.2 ± 4 mPa·s
  mass density: 1157.29 ± 1.2 kg/m3
323.2 K
  viscosity: 93.9 ± 2.7 mPa·s
  mass density: 1153.51 ± 1.2 kg/m3
328.2 K
  viscosity: 69.8 ± 1.8 mPa·s
  mass density: 1149.74 ± 1.2 kg/m3
333.2 K
  viscosity: 56.8 ± 1.4 mPa·s
  mass density: 1145.96 ± 1.2 kg/m3
338.2 K
  viscosity: 44.9 ± 1.1 mPa·s
  mass density: 1142.19 ± 1.1 kg/m3
343.2 K
  viscosity: 36.7 ± 0.9 mPa·s
  mass density: 1138.43 ± 1.1 kg/m3
348.2 K
  viscosity: 29.1 ± 0.7 mPa·s
  mass density: 1134.66 ± 1.1 kg/m3
353.2 K
  viscosity: 24.9 ± 0.6 mPa·s
  mass density: 1130.91 ± 1.1 kg/m3

## CCCCCCCCCCCCn1ccnc1 [1-dodecyl-1H-imidazole]
298.2 K
  viscosity: 24 ± 0.3 mPa·s
  mass density: 898.68 ± 0.74 kg/m3
303.2 K
  viscosity: 20.1 ± 0.3 mPa·s
  mass density: 895.23 ± 0.73 kg/m3
308.2 K
  viscosity: 15.9 ± 0.2 mPa·s
  mass density: 891.79 ± 0.73 kg/m3
313.2 K
  viscosity: 13.3 ± 0.2 mPa·s
  mass density: 888.35 ± 0.73 kg/m3
318.2 K
  viscosity: 11.1 ± 0.2 mPa·s
  mass density: 884.92 ± 0.72 kg/m3
323.2 K
  viscosity: 9.42 ± 0.12 mPa·s
  mass density: 881.49 ± 0.72 kg/m3
328.2 K
  viscosity: 8.06 ± 0.1 mPa·s
  mass density: 878.07 ± 0.71 kg/m3
333.2 K
  viscosity: 6.96 ± 0.09 mPa·s
  mass density: 874.64 ± 0.71 kg/m3
338.2 K
  viscosity: 6 ± 0.08 mPa·s
  mass density: 871.22 ± 0.71 kg/m3
343.2 K
  viscosity: 5.33 ± 0.07 mPa·s
  mass density: 867.81 ± 0.7 kg/m3
348.2 K
  viscosity: 4.7 ± 0.06 mPa·s
  mass density: 864.4 ± 0.7 kg/m3
353.2 K
  viscosity: 4.16 ± 0.05 mPa·s
  mass density: 860.98 ± 0.7 kg/m3
